Experimental data from patent US20070056052A1, “Methods of generating knock-out rodents” (priority 2001, published 2007).

System: male rats (SD, F344, WF)
Experiment: Effects of ENU treatment on male rat fertility (breeding to same-strain females)
Type: in vivo
Details: for % fertile males: weeks 7-26 post-ENU
Experimental: ENU mutagenesis rat protocol: Pathogen-free inbred Wistar Furth (WF), inbred Fischer-344 (F344) and outbred Sprague Dawley (SD) male and female rats were obtained from Harlan Sprague Dawley, Inc. (Indianapolis, Ind.). All rats were given Teklad Lab Blox chow (Harlan Teklad, Madison, Wis.), acidified water ad libitum, and were housed under a 12-h light/12-h dark cycle. After a one week acclimation period, nine-week-old male rats were administered ENU as a single intraperitoneal injection; for a split dose, rats were injected with ENU once at 9 weeks of age and again at 10 weeks of age. One gram of ENU (Sigma) was dissolved in 10 mls of 95% ethanol and then diluted with 90 mls of phosphate citrate buffer prior to injection. All injections of ENU were given in the morning hours. To characterize the effect of ENU treatment on fertility in the various rat strains, mutagenized males were paired with untreated females of the same strain for consecutive 2-3 week periods, beginning 3-5 weeks after the first ENU treatment and continuing a minimum of 26 weeks post-ENU. We observed female rats for vaginal plugs, gross pregnancy and date of birth/size of litters. For our phenotypic mutant (phenodeviant) rat screening experiments, ENU-treated SD male rats were bred with SD female rats and all F1 pups were visually checked for gross abnormalities in physical development or behavior as compared to littermates at least twice prior to weaning at approximately 21 days of age. A subset of the F1 phenodeviant rats identified was bred to SD rats to determine inheritance of the observed phenotypic mutation. Several of the heritable phenodeviant rat lines are currently being maintained and backcrossed to eliminate residual ENU-induced genetic changes not associated with the phenotypic mutation.
Optimization of ENU dosages: We examined several rat strains, inbred WF and F344 rats and outbred SD rats in which groups of male rats were given either single or split doses of ENU. These male rats were then bred to same-strain female rats at various times post-ENU to test for fertility (Table 1). The three rat strains were unable to regain fertility following large doses of ENU. The WF strain was extremely sensitive to ENU-induced sterility. […] The SD and F344 strains responded in a similar manner with maximum ENU doses of 100-150 mg/kg, allowing for some percentage of rats to remain fertile or recover fertility; however, the F344 strain was more sensitive to split dose protocols compared to the SD rats. […] This phenomenon was also true for the both the F344 and WF rat strains. […] It also appears from the SD and F344 fertility data shown in Table 1 that these rat strains were more likely to remain fertile or regain fertility following a split dose of ENU versus a single dose when the total dose exposure was equal. In addition, average litter size was reduced in both the SD and F344 strains around weeks 1-9 post-ENU (data not shown), the same time period in which we observed reduced fertility in the ENU-treated males.

SMILES: CCN(N=O)C(N)=O [ENU, N-ethyl-N-nitrosourea]
- fertility of treated males (F344, 75 mg/kg): All rats remained fertile
- rats that maintained fertility (F344, 100 mg/kg given in either a single or split dose): about 60%
- % fertile males (F344, single dose 75 mg/kg i.p.): 100%
- % fertile males (F344, single dose 100 mg/kg i.p.): 67%
- % fertile males (F344, single dose 120 mg/kg i.p.): 0%
- % fertile males (F344, split dose 2 × 50 mg/kg): 60%
- % fertile males (F344, split dose 2 × 60 mg/kg): 40%
- % fertile males (F344, split dose 2 × 75 mg/kg): 0%
- % fertile males (F344, split dose 2 × 100 mg/kg): 0%
- maximum ENU doses allowing some percentage of rats to remain fertile or recover fertility (SD and F344 strains): 100 to 150 mg/kg
- average litter size (SD and F344 strains, around weeks 1-9 post-ENU (data not shown)): reduced
- % fertile males (SD, single dose 75 mg/kg i.p.): 100%
- % fertile males (SD, single dose 100 mg/kg i.p.): 80%
- % fertile males (SD, single dose 120 mg/kg i.p.): 33%
- % fertile males (SD, single dose 150 mg/kg i.p.): 0%
- % fertile males (SD, single dose 200 mg/kg i.p.): 0%
- fertility of treated males (SD, split dose 2×50 mg/kg or 2×60 mg/kg, after a brief recovery period): fully fertile
- % fertile males (SD, split dose 2 × 50 mg/kg): 100%
- % fertile males (SD, split dose 2 × 60 mg/kg): 100%
- % fertile males (SD, split dose 2 × 75 mg/kg): 20%
- % fertile males (SD, split dose 2 × 100 mg/kg): 0%
- maximum total dose after which fertile males were obtained (WF strain): 50 mg/kg
- male rats permanently sterilized (WF, 25 mg/kg single injection): approximately 70%
- % fertile males (WF, single dose 25 mg/kg i.p.): 30%
- % fertile males (WF, single dose 35 mg/kg i.p.): 33%
- % fertile males (WF, single dose 50 mg/kg i.p.): 25%
- % fertile males (WF, single dose 75 mg/kg i.p.): 0%
- % fertile males (WF, single dose 100 mg/kg i.p.): 0%
- % fertile males (WF, split dose 2 × 15 mg/kg): 17%
- % fertile males (WF, split dose 2 × 25 mg/kg): 17%
- % fertile males (WF, split dose 2 × 50 mg/kg): 0%
- % fertile males (WF, split dose 2 × 75 mg/kg): 0%
